# Target: T1, 5-HT2B receptor (Homo sapiens, UniProt P41595)
# T1 construct: gene HTR2B
# Assay: [3H]-LSD radioligand displacement at […] (PDSP primary screen); partial agonist in Ca2+ flux
# Assay type: binding
# T1 sequence (P41595 whole entry): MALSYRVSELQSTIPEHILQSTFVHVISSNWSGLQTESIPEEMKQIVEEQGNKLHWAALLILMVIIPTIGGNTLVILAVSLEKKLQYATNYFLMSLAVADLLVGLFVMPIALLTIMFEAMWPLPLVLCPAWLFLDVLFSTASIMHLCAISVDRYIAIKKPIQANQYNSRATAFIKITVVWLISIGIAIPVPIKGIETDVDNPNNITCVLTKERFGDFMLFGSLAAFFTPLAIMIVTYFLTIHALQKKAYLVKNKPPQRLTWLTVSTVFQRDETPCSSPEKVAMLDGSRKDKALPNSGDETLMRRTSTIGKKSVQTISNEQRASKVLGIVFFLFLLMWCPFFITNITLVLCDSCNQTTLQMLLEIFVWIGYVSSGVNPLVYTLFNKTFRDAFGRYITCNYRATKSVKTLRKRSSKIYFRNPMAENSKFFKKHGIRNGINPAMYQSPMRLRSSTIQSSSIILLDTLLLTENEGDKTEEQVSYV
structure (smiles),measurement,value
O=C(C1CCCCC1)N1CC(=O)N2CCc3ccccc3[C@@H]2C1 [(R)-PZQ],[3H]-LSD radioligand displacement at 5 μM (PDSP primary screen); partial agonist,the human 5-HT2B receptor (5-HT2BR)—where inhibition seen with (±)-PZQ was attributable solely to (R)-PZQ

# Source: PMC5716991, “The anthelmintic praziquantel is a human serotoninergic G-protein-coupled receptor ligand” (Nature Communications, 2017)
